Reference: PubChem BioAssay (NCI)
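Each compound was tested at five concentrations against cells in 96-well plates for 48 hours. GI50 = concentration required for 50% inhibition of growth. Definition used: TGI = concentration required for complete inhibition of growth.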

Legend:
Experiment in all cases: growth of human tumour cells (NCI), 48 h
[1] = system: HCT-15 colon
[2] = system: U251 CNS
[3] = system: HCT-116 colon
[4] = system: SK-MEL-2 melanoma
[5] = system: NCI-H226 lung
[6] = system: HOP-92 NSCLC
[7] = system: SW-620 colon
[8] = system: UACC-257 melanoma
[9] = system: HL-60(TB) leukemia
[10] = system: SR leukemia

SMILES | TGI [1] [µM] | TGI [2] [µM] | TGI [3] [µM] | TGI [4] [µM] | TGI [5] [µM] | TGI [6] [µM] | TGI [7] [µM] | TGI [8] [µM] | TGI [9] [µM] | TGI [10] [µM] | GI50 [10] [µM] | GI50 [1] [µM] | GI50 [2] [µM] | GI50 [4] [µM] | GI50 [5] [µM] | GI50 [6] [µM] | GI50 [7] [µM] | GI50 [8] [µM] | GI50 [9] [µM]
Cc1ccsc1C(=S)Nc1ccc(Cl)c(C(=O)OC(C(C)C)C(C)C)c1 | > 100 | 97.1 | 75.5 | 25.8 | > 100 | 61.3 | 98.8 | > 100 | 31.5 | – | – | – | – | – | – | – | – | – | –
CCC1(CC)C(=O)NC(=S)N=C1N | > 100 | > 100 | > 100 | > 100 | > 100 | > 100 | > 100 | > 100 | > 100 | – | – | – | – | – | – | – | – | – | –
CCNC(=S)N/N=C/c1ccccn1 | > 100 | 75 | 73.7 | > 100 | 22 | – | > 100 | > 100 | 23.2 | > 100 | – | – | – | – | – | – | – | – | –
COc1cc2c(cc1O)CC[n+]1cc3c(OC)c(OC)ccc3cc1-2 | > 100 | > 100 | > 100 | > 100 | > 100 | > 100 | > 100 | > 100 | > 100 | – | – | – | – | – | – | – | – | – | –
NC(=S)N=Nc1c(O)cc(Nc2ccc(Cl)cc2Cl)c2ccccc12 | > 100 | 38.2 | > 100 | > 100 | > 100 | 52.4 | > 100 | > 100 | > 100 | – | – | – | – | – | – | – | – | – | –
Cc1cc(C)nc(NS(=O)(=O)c2ccc(Nc3c4ccccc4nc4c(C(=O)NCCO)cccc34)cc2)n1 | 46 | > 100 | – | 35.7 | – | > 100 | > 100 | – | > 100 | 56.1 | – | – | – | – | – | – | – | – | –
O=C(NCCCNCCCCNCCCNC(=O)C(F)(F)F)C(F)(F)F | > 100 | > 100 | > 100 | > 100 | > 100 | – | > 100 | > 100 | > 100 | – | – | – | – | – | – | – | – | – | –
c1ccc(-c2ccc(N=NN3CCCC3)cc2)cc1 | > 100 | > 100 | > 100 | > 100 | > 100 | > 100 | > 100 | > 100 | – | > 100 | – | – | – | – | – | – | – | – | –
CCOP(=O)(OCC)c1cc(-c2ccccc2)ccc1N | > 100 | > 100 | > 100 | > 100 | – | > 100 | > 100 | > 100 | – | – | – | – | – | – | – | – | – | – | –
Nc1nc(Nc2ccc(OCc3cccc(F)c3)cc2)c2c(n1)[nH]c1ccc(O)cc12 | 16.2 | 6.09 | – | 7.71 | 54.6 | 7.98 | 6.26 | 22.2 | 4.21 | 5.87 | 2.13 | 3.61 | 2.44 | 2.61 | 24.2 | 2.37 | 2.54 | 4.81 | 2.01
C/C(=N\Nc1nc2ccccc2s1)c1cccnn1 | > 100 | > 100 | 25.5 | 36.8 | 59.3 | 14.3 | > 100 | > 100 | – | 52.5 | – | – | – | – | – | – | – | – | –
COc1ccc(N2C(=O)C3c4[nH]c5ccccc5c4C4C(C)CCCC4C3C2=O)cc1 (stereo not given) | > 100 | > 100 | > 100 | > 100 | > 100 | > 100 | > 100 | > 100 | – | > 46.8 | – | – | – | – | – | – | – | – | –
O=C(O)c1cc2ccccc2c(S(=O)(=O)O)c1O | > 100 | > 100 | > 100 | > 100 | – | > 100 | > 100 | > 100 | > 100 | – | – | – | – | – | – | – | – | – | –
COc1cc2c(cc1OCCCOc1cc3c(cc1OC)C(=O)N1CCC[C@H]1CN3)N=C[C@@H]1CCCN1C2=O | > 24.5 | – | – | 0.365 | 0.398 | – | > 32.4 | 0.516 | 0.68 | 0.0265 | – | – | – | – | – | – | – | – | –
CCOC(=O)c1c(NC(=S)Nc2ccc(C)cc2)sc2c1CCN(C)C2 | > 100 | – | > 100 | > 100 | > 100 | – | – | > 100 | > 100 | – | – | – | – | – | – | – | – | – | –
COC(=O)c1sc2ncc3c(c2c1N)CC(C)CC3 (stereo not given) | > 100 | > 100 | > 100 | > 100 | > 100 | > 100 | > 100 | > 100 | – | > 100 | – | – | – | – | – | – | – | – | –
O=C1NN=C(c2c[nH]c3ccccc23)CC1NCc1ccccc1 (stereo not given) | > 100 | > 100 | > 100 | > 100 | > 100 | > 100 | > 100 | > 100 | > 100 | – | – | – | – | – | – | – | – | – | –
CC1OC(n2cc(F)c(=O)[nH]c2=O)C(O[Si](C)(C)C(C)(C)C)C1O[Si](C)(C)C(C)(C)C (stereo not given) | 25.6 | 26.9 | 26.8 | 35.5 | 31.1 | – | 28.6 | 33.2 | 45.1 | > 100 | – | – | – | – | – | – | – | – | –
N#CC(C#N)=Cc1cccc(Oc2ccccc2)c1 | > 100 | 18.9 | 32.9 | 49 | > 69.1 | – | 58.7 | 28.1 | 47.3 | 61.3 | – | – | – | – | – | – | – | – | –
COC1OC2COC(C)(C)OC2C2OC(C)(C)OC12 (stereo not given) | > 100 | > 100 | > 100 | > 100 | 76.2 | – | > 100 | > 100 | – | – | – | – | – | – | – | – | – | – | –
COC(=O)/C(=N\NC(=S)NN)C(C(=O)C(=O)Nc1ccccc1C(N)=O)c1nc2ccccc2[nH]c1=O (stereo not given) | > 100 | > 100 | > 100 | > 100 | > 100 | > 100 | > 100 | > 100 | – | > 100 | – | – | – | – | – | – | – | – | –
O=C1c2c(c3c4ccc(Br)cc4oc3c3[nH]c4ccccc4c23)C(=O)N1O | > 100 | – | – | 7.23 | > 100 | 4.45 | > 100 | – | – | – | – | 2.13 | – | 2.34 | 2.34 | 1.74 | 1.38 | – | –
